Results from ChEMBL document CHEMBL1136451, “Semi-synthetic glycopeptide antibacterials” (Bioorg Med Chem Lett, 2003).
Values after ≈ are worked out from the molar mass of the structure shown.

Columns and labels:
Enterococcus sp. = test: Antibacterial activity against Enterococcus species., VanA; format: functional
Streptococcus pneumoniae = test: Antibacterial activity against Streptococcus pneumoniae; format: functional
Staphylococcus aureus [1] = test: Antibacterial activity against Methicillin resistant staphylococcus aureus (MRSA); format: functional
[2] = Cmax (Tissue distribution) of compound was determined at a dose of 5 mg/kg in human; format: ADME, organism-based; parameters: dose 5 mg/kg; conditions: in vivo
[3] = Half life of compound was determined in man with once daily dosing; format: ADME; conditions: human
Staphylococcus aureus [4] = test: Antibacterial activity against Vancomycin resistant staphylococcus aureus (VRSA); format: functional
Streptococcus agalactiae = test: Inhibitory activity of compound against Streptococcus agalactiae KPB-01; format: functional, organism-based
Staphylococcus aureus [5] = test: Inhibitory activity of compound against Staphylococcus aureus ATCC 33591; format: functional, organism-based
Enterococcus faecalis = test: Inhibitory activity of compound against VanA Enterococcus faecalis MGH-01; format: functional, organism-based

SMILES	MIC90 (Enterococcus sp.)	MIC90 (Streptococcus pneumoniae)	MIC90 (Staphylococcus aureus [1])	MIC (Staphylococcus aureus [4])	also measured
CN[C@H](CC(C)C)C(=O)N[C@H]1C(=O)N[C@@H](CC(N)=O)C(=O)N[C@H]2C(=O)N[C@H]3C(=O)N[C@H](C(=O)N[C@H](C(=O)O)c4cc(O)cc(O)c4-c4cc3ccc4O)[C@H](O)c3ccc(c(Cl)c3)Oc3cc2cc(c3O[C@@H]2O[C@H](CO)[C@@H](O)[C@H](O)[C@H]2O[C@H]2C[C@](C)(N)[C@H](O)[C@H](C)O2)Oc2ccc(cc2Cl)[C@H]1O [VANCOMYCIN]	4 µg/mL (≈ 2.76 µM)	0.008 µg/mL (≈ 0.00552 µM)	1 µg/mL (≈ 0.69 µM)		
CCCCCCCCCCNCCN[C@@]1(C)C[C@H](O[C@H]2[C@H](Oc3c4cc5cc3Oc3ccc(cc3Cl)[C@@H](O)[C@@H](NC(=O)[C@@H](CC(C)C)NC)C(=O)N[C@@H](CC(N)=O)C(=O)N[C@H]5C(=O)N[C@H]3C(=O)N[C@H](C(=O)N[C@H](C(=O)O)c5cc(O)c(CNCP(=O)(O)O)c(O)c5-c5cc3ccc5O)[C@H](O)c3ccc(c(Cl)c3)O4)O[C@H](CO)[C@@H](O)[C@@H]2O)O[C@@H](C)[C@H]1O					Cmax [2]: 45000 ng/mL; half-life [3]: 7 h
CCCCCCCCCCNCCN[C@@]1(C)C[C@H](O[C@H]2[C@H](Oc3c4cc5cc3Oc3ccc(cc3Cl)[C@@H](O)[C@]3(C)NC(=O)[C@H](NC(=O)[C@@H]5NC(=O)[C@H](CC(N)=O)NC(=O)[C@](C)(NC(=O)[C@@H](CC(C)C)NC)[C@H](O)c5ccc(c(Cl)c5)O4)c4ccc(O)c(c4)-c4c(O)cc(O)cc4[C@@H](C(=O)O)NC3=O)O[C@H](CO)[C@@H](O)[C@@H]2O)O[C@@H](C)C1O (stereo not given in full)				0.4 µg/mL (≈ 0.241 µM)	
CCCCCCCCCCNCCN[C@@]1(C)C[C@H](O[C@H]2[C@H](Oc3c4cc5cc3Oc3ccc(cc3Cl)[C@@H](O)[C@@](C)(NC(=O)[C@@H](CC(C)C)NC)C(=O)N[C@@H](CC(N)=O)C(=O)N[C@H]5C(=O)N[C@H]3C(=O)N[C@H](C(=O)N[C@H](C(=O)O)c5cc(O)c(CNCP(=O)(O)O)c(O)c5-c5cc3ccc5O)[C@H](O)c3ccc(c(Cl)c3)O4)O[C@H](CO)[C@@H](O)[C@@H]2O)O[C@@H](C)C1O (stereo not given in full) [listing 1 of 2 here]	8 µg/mL (≈ 4.52 µM)	0.008 µg/mL (≈ 0.00452 µM)	1 µg/mL (≈ 0.565 µM)	2 µg/mL (≈ 1.13 µM)	
CN[C@H](CC(C)C)C(=O)N[C@H]1C(=O)N[C@@H](CC(N)=O)C(=O)N[C@H]2C(=O)N[C@H]3C(=O)N[C@H](C(=O)N[C@H](C(=O)O)c4cc(O)cc(O)c4-c4cc3ccc4O)[C@H](O[C@H]3C[C@](C)(N)[C@@H](O)[C@H](C)O3)c3ccc(c(Cl)c3)Oc3cc2cc(c3O[C@@H]2O[C@H](CO)[C@@H](O)[C@H](O)[C@H]2O[C@H]2C[C@](C)(NCc3ccc(-c4ccc(Cl)cc4)cc3)[C@@H](O)[C@H](C)O2)Oc2ccc(cc2Cl)[C@H]1O [ORITAVANCIN]	4 µg/mL (≈ 2.23 µM)	0.008 µg/mL (≈ 0.00446 µM)	1 µg/mL (≈ 0.558 µM)	0.5 µg/mL (≈ 0.279 µM)	
CN[C@H]1C(=O)N[C@@H]2Cc3ccc(cc3)Oc3cc4cc(c3O[C@@H]3O[C@H](C(=O)O)[C@@H](O)[C@H](O)[C@H]3NC(=O)CCCCCCCCC(C)C)Oc3ccc(cc3Cl)[C@@H](O)[C@@H]3NC(=O)[C@H](NC(=O)[C@@H]4NC(=O)[C@@H](NC2=O)c2cc(cc(O)c2Cl)Oc2cc1ccc2O)c1ccc(O)c(c1)-c1c(O[C@H]2O[C@H](CO)[C@@H](O)[C@H](O)[C@@H]2O)cc(O)cc1[C@@H](C(=O)NCCCN(C)C)NC3=O [DALBAVANCIN]	128 µg/mL (≈ 70.5 µM)	0.06 µg/mL (≈ 0.033 µM)	0.25 µg/mL (≈ 0.138 µM)		
CCCCCCCCCCNCCN[C@@]1(C)C[C@H](O[C@H]2[C@H](Oc3c4cc5cc3Oc3ccc(cc3Cl)[C@@H](O)[C@@](C)(NC(=O)[C@@H](CC(C)C)NC)C(=O)N[C@@H](CC(N)=O)C(=O)N[C@H]5C(=O)N[C@H]3C(=O)N[C@H](C(=O)N[C@H](C(=O)O)c5cc(O)c(CNCP(=O)(O)O)c(O)c5-c5cc3ccc5O)[C@H](O)c3ccc(c(Cl)c3)O4)O[C@H](CO)[C@@H](O)[C@@H]2O)O[C@@H](C)C1O (stereo not given in full) [listing 2 of 2 here]					IC50 (Streptococcus agalactiae): 15 µg/mL (≈ 8.48 µM); IC50 (Staphylococcus aureus [5]): 23 µg/mL (≈ 13 µM); IC50 (Enterococcus faecalis): 10 µg/mL (≈ 5.65 µM)
